In ChEMBL document CHEMBL1158089, “Indoleamine 2,3-dioxygenase inhibitors from the Northeastern Pacific Marine Hydroid Garveia annulata” (J Nat Prod, 2006) one finds Ki data, which are given here for three compounds.

The assay concerns the target Indoleamine 2,3-dioxygenase 1 (Homo sapiens, UniProt P14902). As to the kind of experiment: Inhibition of human indoleamine 2,3-dioxygenase expressed in Escherichia coli by spectrophotometric activity assay.

The structures appear in SMILES notation.

Indoleamine 2,3-dioxygenase 1, sequence (P14902 whole entry): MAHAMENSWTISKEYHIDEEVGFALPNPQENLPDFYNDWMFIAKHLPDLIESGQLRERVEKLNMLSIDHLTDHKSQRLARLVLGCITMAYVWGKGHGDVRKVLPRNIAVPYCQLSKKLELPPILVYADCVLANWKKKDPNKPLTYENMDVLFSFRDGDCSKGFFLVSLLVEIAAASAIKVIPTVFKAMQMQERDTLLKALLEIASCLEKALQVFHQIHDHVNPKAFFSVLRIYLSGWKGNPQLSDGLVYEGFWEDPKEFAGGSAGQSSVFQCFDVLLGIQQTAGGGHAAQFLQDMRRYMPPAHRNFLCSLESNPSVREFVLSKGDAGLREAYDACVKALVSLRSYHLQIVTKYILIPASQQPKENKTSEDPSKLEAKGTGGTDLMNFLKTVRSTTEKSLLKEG

The compound `CCC1=C(C)C(=O)c2cc3c(c(O)c2C1=O)C(=O)C(C)(O)C(=O)C3(C)C` (stereo not drawn) came in with a Ki of 1400 nM.
Then `CCc1c(C)cc2c(c1O)C(=O)C1=C(C2=O)C(C)(C)OC1(OC)C(=O)OC` (stereo not drawn) [ANNULIN C], with 140 nM; and `COc1c(C(C)=O)c(C)cc2cc3c(c(O)c12)C(=O)C(C)(C)C(=O)C3(C)C` [GARVEATIN C], with 1200 nM.

What is called Ki is a measure of affinity in units of concentration, obtained from inhibition or displacement. Higher therefore signals weaker binding.
